ChEMBL document CHEMBL1201862, “PubChem BioAssay data set” (2004)
Activity calls are given as the source filed them.

Legend:
[1] = target: T1, Voltage-gated N-type calcium channel alpha-1B subunit/Amyloid beta A4 precursor protein-binding family A member 1 (Homo sapiens, UniProt Q00975+Q02410); format: protein assay
[2] = DRD fibroblast viability loss – cell-based, non-viral oncogenic, luminescence, dose response (AID 1934); format: functional; conditions: Homo sapiens
BJ [3] = experiment: growth inhibition of engineered Ras-driven BJ cells – cell-based, alamar blue fluorescence, cherrypicked samples, dose response (AID 2631); format: functional; conditions: Homo sapiens;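 further: confirmatory dose-response assay in RAS-dependent BJ fibroblasts engineered with TERT, LT and ST, with cytotoxicity read by fluorescence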
BJ [4] = experiment: BJ-TERT-LT-ST fibroblast viability loss – cell-based, RAS-independent, luminescence, dose response (AID 1935); format: functional; conditions: Homo sapiens;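 further: BJ fibroblasts immortalized with TERT plus LT and ST oncogenes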
[5] = target: G2/mitotic-specific cyclin-B1 (Homo sapiens, UniProt P14635); experiment: Counterscreen assay for inhibitors of Wee1 degradation: dose response cell-based assay to identify inhibitors of cyclin B degradation. [Related pubchem assays: 1410, 1321 ]; format: functional
Chain of G2/mitotic-specific cyclin-B1 (P14635 whole entry): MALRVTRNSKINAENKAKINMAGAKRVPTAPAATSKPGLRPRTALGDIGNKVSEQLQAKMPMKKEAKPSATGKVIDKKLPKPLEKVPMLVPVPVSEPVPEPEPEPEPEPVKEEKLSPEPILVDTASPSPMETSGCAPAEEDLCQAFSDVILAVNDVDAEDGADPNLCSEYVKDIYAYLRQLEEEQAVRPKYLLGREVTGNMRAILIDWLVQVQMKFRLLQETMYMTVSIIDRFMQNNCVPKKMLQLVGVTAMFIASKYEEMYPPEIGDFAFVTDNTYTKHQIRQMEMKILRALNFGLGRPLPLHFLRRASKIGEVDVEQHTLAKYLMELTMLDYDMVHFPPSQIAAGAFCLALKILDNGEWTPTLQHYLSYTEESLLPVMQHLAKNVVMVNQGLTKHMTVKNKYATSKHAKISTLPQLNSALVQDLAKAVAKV

BJ [6] = experiment: cells; format: functional, cell-based; conditions: Homo sapiens
BJ [7] = experiment: BJ-TERT fibroblast viability loss – cell-based, RAS-independent, luminescence, dose response (AID 1933); format: functional; conditions: Homo sapiens
[8] = Luminescence-based counterscreen assay for KLF5 inhibitors: dose response cell-based high throughput screening assay to identify cytotoxic compounds using the IEC-6 intestinal epithelial cell line. [Related pubchem assays: 1700 (Primary screen.), 1834 (Confirmation screen.), 1858 (Summary AID.), 1905 (Counterscreen.)]; format: functional
[9] = target: T1, Voltage-gated N-type calcium channel alpha-1B subunit/Amyloid beta A4 precursor protein-binding family A member 1; format: protein assay; remark: listed apart in the source
Wee1-like protein kinase = Wee1-like protein kinase (Homo sapiens, UniProt P30291); experiment: Dose Response Cell-based Assay for Inhibitors of Wee1 Degradation. [Related pubchem assays: 1410, 1321 ]; format: functional
Chain of Wee1-like protein kinase (P30291 whole entry): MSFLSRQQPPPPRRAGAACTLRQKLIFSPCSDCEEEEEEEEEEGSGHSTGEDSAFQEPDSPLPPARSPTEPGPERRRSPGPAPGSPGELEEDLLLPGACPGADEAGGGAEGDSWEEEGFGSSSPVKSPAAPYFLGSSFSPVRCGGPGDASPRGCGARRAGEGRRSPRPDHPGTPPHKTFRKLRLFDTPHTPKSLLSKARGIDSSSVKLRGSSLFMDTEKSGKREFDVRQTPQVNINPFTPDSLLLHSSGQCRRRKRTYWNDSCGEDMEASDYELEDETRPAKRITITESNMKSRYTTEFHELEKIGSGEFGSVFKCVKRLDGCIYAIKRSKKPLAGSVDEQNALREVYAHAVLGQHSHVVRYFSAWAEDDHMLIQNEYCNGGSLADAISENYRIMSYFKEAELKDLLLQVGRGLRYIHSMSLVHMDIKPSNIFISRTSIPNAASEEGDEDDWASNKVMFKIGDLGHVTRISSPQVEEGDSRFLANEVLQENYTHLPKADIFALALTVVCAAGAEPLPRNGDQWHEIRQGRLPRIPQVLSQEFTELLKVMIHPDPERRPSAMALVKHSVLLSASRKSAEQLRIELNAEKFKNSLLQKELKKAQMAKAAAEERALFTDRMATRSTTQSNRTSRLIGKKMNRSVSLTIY

[10] = target: T2, Neuropeptide Y receptor type 2 (Homo sapiens, UniProt P49146); experiment: IC50 for human NPY-Y2 blockade – cell-based, counter-screen for NPY-Y1 antagonist project, dose response (AID 1278); format: functional
T2 sequence (P49146 whole entry): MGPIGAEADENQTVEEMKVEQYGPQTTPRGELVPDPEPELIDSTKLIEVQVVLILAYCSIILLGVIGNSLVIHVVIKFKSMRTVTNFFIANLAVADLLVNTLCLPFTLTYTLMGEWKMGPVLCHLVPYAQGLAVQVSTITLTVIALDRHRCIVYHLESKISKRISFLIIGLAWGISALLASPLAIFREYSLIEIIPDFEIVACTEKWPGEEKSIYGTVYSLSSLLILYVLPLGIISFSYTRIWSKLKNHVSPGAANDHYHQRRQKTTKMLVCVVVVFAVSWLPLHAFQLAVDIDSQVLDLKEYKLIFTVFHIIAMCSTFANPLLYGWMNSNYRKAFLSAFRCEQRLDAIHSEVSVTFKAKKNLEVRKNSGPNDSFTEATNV

HEK293 [11] = experiment: cells; conditions: Homo sapiens
[12] = loss of viability in HepG2 cells – cell-based, CellTiter-Glo, cherry-picked, cytotoxicity control for Shn3 inhibitor project, dose response (AID 624134); format: functional
[13] = non-specific 3'UTR reporter inhibition in Clone20-Shn3RL – cell-based, Renilla luciferase, cherry-picked, counter-screen for Shn3 inhibitor project, dose response (AID 624133); format: functional
[14] = reduction of Shn3 3'UTR-driven luciferase in osteoblasts – cell-based, Clone20 osteoblasts, firefly luciferase, cherry-picked, dose response (AID 624132); format: functional;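 further: firefly luciferase luminescence from reporter carrying the Shn3 3'UTR in osteoblasts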
[15] = target: T2, Neuropeptide Y receptor type 2; experiment: Fluorescence-based cell-based high-throughput dose response assay for agonists of NPY-Y2. [Related pubchem assays: 1703 (Screening assay (CNGC inhibitors).), 1359 (Screening assay (NPY-Y2 potentiators or agonists).), 1304 (Screening assay (NPY-Y1 potentiators or agonists).), 1710 (Screening assay (NPY-Y2 agonists).), 1791 (Summary AID.)]; format: functional
[16] = target: T3, Neuropeptide Y receptor type 1 (Homo sapiens, UniProt P25929); experiment: IC50 of human NPY-Y1 blockers – cell-based, dose response (AID 1277); format: functional
T3 sequence (P25929 whole entry): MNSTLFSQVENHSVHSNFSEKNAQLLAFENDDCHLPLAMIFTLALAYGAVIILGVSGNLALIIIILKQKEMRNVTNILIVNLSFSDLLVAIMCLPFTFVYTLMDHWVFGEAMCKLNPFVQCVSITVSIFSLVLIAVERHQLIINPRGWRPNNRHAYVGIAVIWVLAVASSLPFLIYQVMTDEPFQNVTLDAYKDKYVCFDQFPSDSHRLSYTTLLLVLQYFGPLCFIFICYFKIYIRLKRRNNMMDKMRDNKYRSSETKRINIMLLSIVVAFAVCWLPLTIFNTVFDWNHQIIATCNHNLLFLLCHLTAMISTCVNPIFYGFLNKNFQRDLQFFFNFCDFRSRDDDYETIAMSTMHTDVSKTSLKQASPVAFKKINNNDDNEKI

HEK293 [17] = experiment: Fluorescence-based counterscreen for potentiators or agonists of NPY-Y2: cell-based high-throughput dose response assay to identify inhibitors of cyclic nucleotide gated ion channel (CNGC) activity. In this assay, the parental HEK293 cell line transfected with a cyclic-nucleotide gated ion channel (CNGC)-based cAMP sensor is used to measure inhibition of isoproterenol-induced CNGC activity by test compound.; format: functional; conditions: Homo sapiens
[18] = target: E3 ubiquitin-protein ligase Mdm2 (Homo sapiens, UniProt Q00987); experiment: MDM2-luc reporter signal enhancers, multi-concentration potency testing, MDM2 ubiquitin-protein ligase inhibitor program, whole-cell format, luminescence detection, 384-well microplate (AID 1394); format: functional;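 further: MDM2 E3 inhibitors raise luminescence so EC50 is for signal enhancement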
HEK293 [19] = experiment: cells; conditions: Homo sapiens; remark: listed apart in the source
[20] = target: T3, Neuropeptide Y receptor type 1; experiment: Fluorescence-based counterscreen for agonists of NPY-Y2: cell-based high-throughput dose response assay for agonists of NPY-Y1.; format: functional
[21] = target: T4, Heat shock factor protein 1 (Mus musculus, UniProt P38532); experiment: enhancement of HSF1-driven luciferase signal – cell-based, NIH3T3, luminescence, dose retest, confirmation (AID 435004); format: functional;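 further: stress induced by proteasome inhibitor MG132 added 30 min after compound; luciferase reporter driven by HSF1 response element in NIH3T3 cells; actives raise luminescence as potentiators of the MG132 stress response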
T4 sequence (P38532 whole entry): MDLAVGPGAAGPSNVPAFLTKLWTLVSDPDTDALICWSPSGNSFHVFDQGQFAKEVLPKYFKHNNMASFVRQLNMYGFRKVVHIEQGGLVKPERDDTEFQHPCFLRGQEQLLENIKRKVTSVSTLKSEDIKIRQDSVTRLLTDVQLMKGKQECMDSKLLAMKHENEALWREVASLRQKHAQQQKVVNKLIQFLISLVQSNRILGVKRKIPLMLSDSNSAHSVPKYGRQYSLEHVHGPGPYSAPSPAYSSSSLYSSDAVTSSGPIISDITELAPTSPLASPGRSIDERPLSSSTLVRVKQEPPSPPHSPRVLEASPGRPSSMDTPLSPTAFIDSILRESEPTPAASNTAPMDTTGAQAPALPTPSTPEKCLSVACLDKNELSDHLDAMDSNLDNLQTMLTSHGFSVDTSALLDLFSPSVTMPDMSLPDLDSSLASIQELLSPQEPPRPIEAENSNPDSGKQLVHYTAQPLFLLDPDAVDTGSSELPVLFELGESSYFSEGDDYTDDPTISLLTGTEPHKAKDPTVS

[22] = target: T5, Heat shock 70 kDa protein 1A (Homo sapiens, UniProt P0DMV8); experiment: small-molecule inhibition of Hsp70 – biochemical, TR-FRET (AID 786)
T5 sequence (P0DMV8 whole entry): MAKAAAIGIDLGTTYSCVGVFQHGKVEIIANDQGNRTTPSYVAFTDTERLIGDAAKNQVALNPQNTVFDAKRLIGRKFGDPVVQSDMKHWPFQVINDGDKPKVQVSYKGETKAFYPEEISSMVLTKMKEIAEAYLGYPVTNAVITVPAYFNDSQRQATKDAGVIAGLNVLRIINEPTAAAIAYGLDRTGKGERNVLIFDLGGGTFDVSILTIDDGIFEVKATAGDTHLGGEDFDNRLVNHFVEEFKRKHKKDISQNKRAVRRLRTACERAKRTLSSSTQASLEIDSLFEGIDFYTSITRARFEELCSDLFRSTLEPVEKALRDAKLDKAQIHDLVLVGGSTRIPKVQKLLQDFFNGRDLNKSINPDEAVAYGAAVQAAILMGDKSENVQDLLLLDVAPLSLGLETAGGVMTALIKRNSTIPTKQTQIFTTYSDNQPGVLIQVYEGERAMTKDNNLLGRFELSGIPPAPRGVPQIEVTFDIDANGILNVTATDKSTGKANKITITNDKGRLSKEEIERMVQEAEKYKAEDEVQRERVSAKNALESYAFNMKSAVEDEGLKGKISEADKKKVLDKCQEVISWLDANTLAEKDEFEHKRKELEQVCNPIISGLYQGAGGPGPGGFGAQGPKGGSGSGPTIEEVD

[23] = Luminescence Cell-Based Dose Retest to Confirm Inhibitors of Cancer Stem Cells. [Related pubchem assays (depositor defined):AID2717, AID2721]; format: functional; conditions: Homo sapiens
[24] = target: T5, Heat shock 70 kDa protein 1A; experiment: small molecules displacing fluorescent ligand from Hsp70 – biochemical, fluorescence polarization, primary screen (AID 583)
[25] = NIH3T3 cell viability loss – ATP luminescence, mouse fibroblasts, counter-screen, dose response (AID 2010); format: functional, cell-based;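 further: cells exposed to compound for about 90 hours before reading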
[26] = Luminescence Cell-Based Dose Response HTS to Identify Inhibitors of 5'UTR Stem-Loop Driven Prion Protein mRNA Translation in H4 Neuroglioblastoma Cells. [Related pubchem assays: 1827 (Project Summary), 1813 (Primary HTS)]; format: functional
[27] = Trypanosoma cruzi growth suppression in host cells – NIH3T3 host cells, beta-gal luminescence, confirmation (AID 2044); format: functional, cell-based;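 further: intracellular parasites grown in NIH/3T3 mouse fibroblasts as host cells; luminescent beta-galactosidase reporter signal from transgenic T. cruzi replicating inside host cells; inhibitors lower the luminescence signal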
[28] = target: T3, Neuropeptide Y receptor type 1; format: functional
[29] = alpha-synuclein stem-loop luciferase translation blockers – H4 neuroglioma cells, luminescence, confirmation (AID 1988); format: functional, cell-based
[30] = luciferase reporter signal suppression in cells – H4 neuroglioma cells, luminescence, dose response (AID 1990); format: functional, cell-based
[31] = target: T2, Neuropeptide Y receptor type 2; format: functional, cell-based
[32] = tested on: Streptococcus sp. 'group A'; experiment: Streptococcus pyogenes SK(-)GAS viability under kanamycin – luminescence, BacTiterGlo, confirmation, counter-screen for streptokinase expression inhibitor project, dose response (AID 1900); format: functional, organism-based
Streptococcus [33] = experiment: GAS UMAA2166 growth inhibition – luminescence, BacTiterGlo, counter-screen for streptokinase expression inhibitor project, dose response (AID 1915); format: functional, organism-based;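 further: potency for reduction of bacterial viability or growth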
Streptokinase A = target: T6, Streptokinase A (Streptococcus pyogenes serotype M1, UniProt P10520); experiment: viability-normalized secreted streptokinase activity reduction – plasminogen activation absorbance, OD405, dose response (AID 1914); format: functional, Streptococcus pyogenes M1 GAS;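 further: secreted streptokinase activity via plasminogen activation per viability signal from cell pellet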
T6 sequence (P10520 whole entry): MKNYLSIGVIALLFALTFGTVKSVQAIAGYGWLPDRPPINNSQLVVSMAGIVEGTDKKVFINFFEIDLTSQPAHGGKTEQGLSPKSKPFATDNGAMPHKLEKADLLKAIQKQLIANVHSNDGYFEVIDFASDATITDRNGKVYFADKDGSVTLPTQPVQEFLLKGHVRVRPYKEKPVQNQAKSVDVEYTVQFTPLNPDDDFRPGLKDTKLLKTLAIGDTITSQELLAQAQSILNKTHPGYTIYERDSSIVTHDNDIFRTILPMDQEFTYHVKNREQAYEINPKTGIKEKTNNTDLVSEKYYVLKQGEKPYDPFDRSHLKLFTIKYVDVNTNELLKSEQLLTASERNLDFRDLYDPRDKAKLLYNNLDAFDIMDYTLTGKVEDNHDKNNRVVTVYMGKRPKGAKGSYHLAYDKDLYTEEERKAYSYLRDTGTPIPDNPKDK

Streptococcus [34] = experiment: Luminescence Microorganism-Based Dose Response Follow up to Identify Compounds Cytotoxic to Streptococcus. [Related pubchem assays: 1677 (Project Summary), 1915, 1914, 1902 (Retest at Dose), 1900 (Counter Screen), 1662 (Primary HTS)]; format: functional, organism-based

T1 sequence (Q00975 whole entry): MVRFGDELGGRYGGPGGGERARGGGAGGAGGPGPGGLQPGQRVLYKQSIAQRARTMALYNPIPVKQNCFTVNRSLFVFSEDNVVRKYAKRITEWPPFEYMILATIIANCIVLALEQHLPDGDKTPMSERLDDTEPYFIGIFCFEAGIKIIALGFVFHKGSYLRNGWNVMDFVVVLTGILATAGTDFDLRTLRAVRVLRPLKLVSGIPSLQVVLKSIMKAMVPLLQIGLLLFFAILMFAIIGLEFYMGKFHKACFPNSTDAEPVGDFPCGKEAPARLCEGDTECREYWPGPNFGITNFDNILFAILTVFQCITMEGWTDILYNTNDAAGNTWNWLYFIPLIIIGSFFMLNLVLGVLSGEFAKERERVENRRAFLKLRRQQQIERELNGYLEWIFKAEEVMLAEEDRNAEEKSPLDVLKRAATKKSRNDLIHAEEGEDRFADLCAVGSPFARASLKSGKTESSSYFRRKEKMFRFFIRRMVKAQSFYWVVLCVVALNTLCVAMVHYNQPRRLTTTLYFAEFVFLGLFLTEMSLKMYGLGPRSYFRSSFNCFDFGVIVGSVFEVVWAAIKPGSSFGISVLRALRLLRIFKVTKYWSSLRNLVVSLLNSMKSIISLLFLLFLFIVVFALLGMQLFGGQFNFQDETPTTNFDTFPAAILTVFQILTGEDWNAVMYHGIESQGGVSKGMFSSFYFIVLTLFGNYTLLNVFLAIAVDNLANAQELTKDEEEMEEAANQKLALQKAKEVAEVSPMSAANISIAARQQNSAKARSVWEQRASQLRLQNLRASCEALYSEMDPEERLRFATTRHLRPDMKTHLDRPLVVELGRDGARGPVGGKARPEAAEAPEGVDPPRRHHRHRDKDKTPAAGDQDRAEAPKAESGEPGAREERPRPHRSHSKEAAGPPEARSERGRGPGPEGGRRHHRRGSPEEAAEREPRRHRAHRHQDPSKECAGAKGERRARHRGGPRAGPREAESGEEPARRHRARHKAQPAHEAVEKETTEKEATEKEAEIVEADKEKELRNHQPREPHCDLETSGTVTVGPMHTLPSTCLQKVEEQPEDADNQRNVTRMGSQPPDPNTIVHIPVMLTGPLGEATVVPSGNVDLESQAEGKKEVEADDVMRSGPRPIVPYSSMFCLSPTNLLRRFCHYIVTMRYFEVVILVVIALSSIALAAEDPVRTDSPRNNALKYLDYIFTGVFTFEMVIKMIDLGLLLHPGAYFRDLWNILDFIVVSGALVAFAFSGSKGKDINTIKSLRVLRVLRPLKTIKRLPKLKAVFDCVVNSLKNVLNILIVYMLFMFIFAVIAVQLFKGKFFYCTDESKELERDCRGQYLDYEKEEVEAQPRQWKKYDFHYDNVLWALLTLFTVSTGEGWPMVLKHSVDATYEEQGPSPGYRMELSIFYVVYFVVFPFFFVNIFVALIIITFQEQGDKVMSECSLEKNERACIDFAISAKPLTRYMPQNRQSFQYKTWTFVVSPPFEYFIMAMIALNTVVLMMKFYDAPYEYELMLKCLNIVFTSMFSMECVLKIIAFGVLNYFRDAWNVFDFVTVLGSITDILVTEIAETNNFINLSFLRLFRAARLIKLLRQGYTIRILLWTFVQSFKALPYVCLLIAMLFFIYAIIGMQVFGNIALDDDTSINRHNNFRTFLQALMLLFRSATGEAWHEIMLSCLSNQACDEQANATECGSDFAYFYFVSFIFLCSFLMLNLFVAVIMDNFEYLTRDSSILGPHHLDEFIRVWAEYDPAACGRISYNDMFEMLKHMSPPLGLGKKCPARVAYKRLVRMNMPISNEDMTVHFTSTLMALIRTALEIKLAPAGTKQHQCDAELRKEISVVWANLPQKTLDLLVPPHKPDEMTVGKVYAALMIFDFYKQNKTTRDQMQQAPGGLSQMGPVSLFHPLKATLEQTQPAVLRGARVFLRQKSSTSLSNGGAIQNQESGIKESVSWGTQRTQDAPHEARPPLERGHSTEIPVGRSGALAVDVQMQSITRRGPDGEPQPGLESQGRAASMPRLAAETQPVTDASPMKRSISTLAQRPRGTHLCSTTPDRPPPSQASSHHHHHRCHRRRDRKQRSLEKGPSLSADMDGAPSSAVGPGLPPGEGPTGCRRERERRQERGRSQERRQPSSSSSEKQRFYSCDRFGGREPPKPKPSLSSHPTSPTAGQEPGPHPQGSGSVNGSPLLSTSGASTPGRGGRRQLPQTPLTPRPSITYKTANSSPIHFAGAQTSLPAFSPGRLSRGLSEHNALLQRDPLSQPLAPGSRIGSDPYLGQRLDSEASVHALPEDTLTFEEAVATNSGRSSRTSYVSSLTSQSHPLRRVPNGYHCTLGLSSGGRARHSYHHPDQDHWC
T1 sequence (Q02410 whole entry): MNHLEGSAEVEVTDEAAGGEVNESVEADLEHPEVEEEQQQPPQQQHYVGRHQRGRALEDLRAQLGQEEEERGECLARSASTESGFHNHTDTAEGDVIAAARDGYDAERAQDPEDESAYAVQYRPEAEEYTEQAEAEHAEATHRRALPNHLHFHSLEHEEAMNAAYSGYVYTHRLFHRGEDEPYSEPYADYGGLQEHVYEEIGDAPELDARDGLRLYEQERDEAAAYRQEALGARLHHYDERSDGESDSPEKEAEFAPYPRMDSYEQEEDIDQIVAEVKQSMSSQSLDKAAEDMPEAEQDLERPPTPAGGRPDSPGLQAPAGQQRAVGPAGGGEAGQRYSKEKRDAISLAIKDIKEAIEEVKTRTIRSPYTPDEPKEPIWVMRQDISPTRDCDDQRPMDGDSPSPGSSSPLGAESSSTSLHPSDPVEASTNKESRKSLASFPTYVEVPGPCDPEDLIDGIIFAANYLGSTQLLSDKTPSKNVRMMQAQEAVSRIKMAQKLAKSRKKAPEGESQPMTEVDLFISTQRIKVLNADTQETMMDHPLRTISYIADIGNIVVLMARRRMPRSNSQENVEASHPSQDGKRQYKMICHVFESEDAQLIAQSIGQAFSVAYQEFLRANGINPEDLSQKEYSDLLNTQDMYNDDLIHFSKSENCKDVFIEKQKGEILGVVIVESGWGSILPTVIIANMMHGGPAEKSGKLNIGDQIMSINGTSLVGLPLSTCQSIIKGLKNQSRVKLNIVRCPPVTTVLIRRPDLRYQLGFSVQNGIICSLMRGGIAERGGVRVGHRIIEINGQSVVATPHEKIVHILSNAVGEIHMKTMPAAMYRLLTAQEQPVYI

Cc1nc2ccccn2c1-c1csc(Nc2cccc(O)c2)n1
IC50 [1]: > 50 µM (inactive) | EC50 [2]: 1.96 µM (active) | EC50 (BJ [3]): 0.205 µM (active) | EC50 (BJ [4]): 1.55 µM (inconclusive) | EC50 [5]: > 49.7 µM (not active) | EC50 (BJ [6]): 82.4 µM (inconclusive) | EC50 (BJ [7]): 7.42 µM (active) | IC50 [8]: > 13.3 µM (not active) | IC50 [9]: 10 µM (active) | EC50 (Wee1-like protein kinase): > 49.7 µM (not active)

C/C1=C\[C@@H](C)C/C=C/[C@H]2[C@@H]3O[C@]3(C)[C@@H](C)[C@H]3[C@H](Cc4c[nH]c5ccccc45)NC(=O)[C@]32C(=O)/C=C/C(=O)[C@@H]1O
IC50 [10]: 4.76 µM (active) | EC50 (HEK293 [11]): > 59.6 µM (inactive) | AC50 [12]: 24.2 µM (active) | AC50 [13]: 5.25 µM (active) | AC50 [14]: 6.44 µM (active) | EC50 [2]: 5.67 µM (active) | EC50 [15]: > 35.4 µM (not active) | EC50 (BJ [4]): 10.7 µM (inconclusive) | IC50 [16]: 10.6 µM (not active) | EC50 (HEK293 [17]): > 35.4 µM (not active) | EC50 (BJ [6]): 6.74 µM (inconclusive) | EC50 (BJ [7]): 3.85 µM (inconclusive) | EC50 [18]: 12 µM (not active) | EC50 (HEK293 [19]): > 59.6 µM (inactive) | EC50 [20]: > 35.4 µM (not active) | EC50 [21]: 6.24 µM (inconclusive)

CCCc1cc(SCC(=O)Nc2c(C)n(C)n(-c3ccccc3)c2=O)n2c(nc3ccccc32)c1C#N
IC50 [22]: > 100 µM (not active) | AC50 [23]: > 195 µM (inactive) | IC50 [24]: > 100 µM (not active)

CCOc1ccc(-n2cc(C(=O)Nc3cccc(Cl)c3)c3cc(OC)c(OC)cc3c2=O)cc1
EC50 [25]: > 60 µM (not active) | EC50 [26]: > 120 µM (not active) | EC50 [27]: 3.7 µM (active) | IC50 [28]: > 35 µM (not active) | EC50 [29]: > 120 µM (not active) | EC50 [30]: 21.5 µM (active) | IC50 [31]: > 35 µM (not active)

Cc1ccc(/C=C/c2ccc(=O)n(Cc3ccccc3Cl)n2)cc1
EC50 [32]: 6.69 µM (active) | EC50 (Streptococcus [33]): > 50 µM (not active) | EC50 (Streptokinase A): 10.2 µM (active) | EC50 (Streptococcus [34]): 10.7 µM (active)
